A solubility (mole fraction) (in acetone, 278.15 K) of 0.0175, a solubility (mole fraction) (in acetone, 283.15 K) of 0.0201 and a solubility (mole fraction) (in acetone, 288.15 K) of 0.0232 were found for COc1cc(/C=C/C(=O)O)cc(OC)c1OC in this work. The solubility (mole fraction) (in acetone, 293.15 K) was 0.0265, the solubility (mole fraction) (in acetone, 298.15 K) was 0.0301 and the solubility (mole fraction) (in acetone, 303.15 K) was 0.0343. For the same molecule, the solubility (mole fraction) (in acetone, 308.15 K) was 0.0391, the solubility (mole fraction) (in acetone, 313.15 K) was 0.044 and the solubility (mole fraction) (in acetone, 318.15 K) was 0.0492. It also gave a solubility (mole fraction) (in acetone, 323.15 K) of 0.0551, a solubility (mole fraction) (in ethanol, 278.15 K) of 0.00626 and a solubility (mole fraction) (in ethanol, 283.15 K) of 0.0085. It also gave a solubility (mole fraction) (in ethanol, 288.15 K) of 0.0114, a solubility (mole fraction) (in ethanol, 293.15 K) of 0.0153 and a solubility (mole fraction) (in ethanol, 298.15 K) of 0.0201. It also gave a solubility (mole fraction) (in ethanol, 303.15 K) of 0.0261, a solubility (mole fraction) (in ethanol, 308.15 K) of 0.0341 and a solubility (mole fraction) (in ethanol, 313.15 K) of 0.044. It also gave a solubility (mole fraction) (in ethanol, 318.15 K) of 0.057, a solubility (mole fraction) (in ethanol, 323.15 K) of 0.0725 and a solubility (mole fraction) (in isopropanol, 278.15 K) of 0.00465. It also gave a solubility (mole fraction) (in isopropanol, 283.15 K) of 0.0063, a solubility (mole fraction) (in isopropanol, 288.15 K) of 0.00867 and a solubility (mole fraction) (in isopropanol, 293.15 K) of 0.0121. It also gave a solubility (mole fraction) (in isopropanol, 298.15 K) of 0.0163, a solubility (mole fraction) (in isopropanol, 303.15 K) of 0.0215 and a solubility (mole fraction) (in isopropanol, 308.15 K) of 0.0289. For the same molecule, the solubility (mole fraction) (in isopropanol, 313.15 K) was 0.039, the solubility (mole fraction) (in isopropanol, 318.15 K) was 0.0511 and the solubility (mole fraction) (in isopropanol, 323.15 K) was 0.0665. The solubility (mole fraction) (in methanol, 278.15 K) was 0.00662, the solubility (mole fraction) (in methanol, 283.15 K) was 0.00922 and the solubility (mole fraction) (in methanol, 288.15 K) was 0.0127. It also gave a solubility (mole fraction) (in methanol, 293.15 K) of 0.0175, a solubility (mole fraction) (in methanol, 298.15 K) of 0.0236 and a solubility (mole fraction) (in methanol, 303.15 K) of 0.0315. The solubility (mole fraction) (in methanol, 308.15 K) was 0.0417, the solubility (mole fraction) (in methanol, 313.15 K) was 0.0548 and the solubility (mole fraction) (in methanol, 318.15 K) was 0.0717. For the same molecule, the solubility (mole fraction) (in methanol, 323.15 K) was 0.0943, the solubility (mole fraction) (in water, 278.15 K) was 4.67e-05 and the solubility (mole fraction) (in water, 283.15 K) was 5.3e-05. The solubility (mole fraction) (in water, 288.15 K) was 6.05e-05, the solubility (mole fraction) (in water, 293.15 K) was 6.8e-05 and the solubility (mole fraction) (in water, 298.15 K) was 7.61e-05. For the same molecule, the solubility (mole fraction) (in water, 303.15 K) was 8.55e-05, the solubility (mole fraction) (in water, 308.15 K) was 9.58e-05 and the solubility (mole fraction) (in water, 313.15 K) was 0.000107. For the same molecule, the solubility (mole fraction) (in water, 318.15 K) was 0.000118 and the solubility (mole fraction) (in water, 323.15 K) was 0.000131.
